Drawing on ChEMBL document CHEMBL1135773, “Purine and pyrimidine (P2) receptors as drug targets” (J Med Chem, 2002), this text covers EC50 for eight molecules.

For one test, the target named is P2Y purinoceptor 12 (Rattus norvegicus, UniProt Q9EPX4). The test is described as follows: Antagonist activity against phospholipase C coupled rat P2Y purinoceptor 12 (P2Y12). The test is classed as functional.
The next test deals with P2Y purinoceptor 1 (Meleagris gallopavo, UniProt P49652). The test is described as follows: Evaluated for agonist activity against phospholipase C coupled P2Y purinoceptor 1 (P2Y1) of turkey erythrocytes. The test is classed as functional.
The target of test [1] is T1, P2X purinoceptor 1 (Homo sapiens, UniProt P51575).
T1 sequence (P51575 whole entry): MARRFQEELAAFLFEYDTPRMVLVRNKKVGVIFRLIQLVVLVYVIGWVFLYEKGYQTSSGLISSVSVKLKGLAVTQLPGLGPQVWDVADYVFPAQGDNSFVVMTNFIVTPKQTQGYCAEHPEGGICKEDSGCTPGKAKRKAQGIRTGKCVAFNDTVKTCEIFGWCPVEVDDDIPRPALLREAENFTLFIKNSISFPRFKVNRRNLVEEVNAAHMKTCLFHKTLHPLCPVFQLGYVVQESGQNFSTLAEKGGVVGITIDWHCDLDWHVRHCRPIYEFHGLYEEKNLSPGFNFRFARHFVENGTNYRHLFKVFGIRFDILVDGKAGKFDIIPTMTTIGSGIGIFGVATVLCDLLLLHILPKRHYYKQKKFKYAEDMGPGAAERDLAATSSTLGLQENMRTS
The test is described as follows: Antagonist activity against recombinant human P2X purinoceptor 1 (P2X1 ). The test is classed as functional.

Test [2] addresses T2, P2X purinoceptor 4 (Rattus norvegicus, UniProt P51577).
T2 sequence (P51577 whole entry): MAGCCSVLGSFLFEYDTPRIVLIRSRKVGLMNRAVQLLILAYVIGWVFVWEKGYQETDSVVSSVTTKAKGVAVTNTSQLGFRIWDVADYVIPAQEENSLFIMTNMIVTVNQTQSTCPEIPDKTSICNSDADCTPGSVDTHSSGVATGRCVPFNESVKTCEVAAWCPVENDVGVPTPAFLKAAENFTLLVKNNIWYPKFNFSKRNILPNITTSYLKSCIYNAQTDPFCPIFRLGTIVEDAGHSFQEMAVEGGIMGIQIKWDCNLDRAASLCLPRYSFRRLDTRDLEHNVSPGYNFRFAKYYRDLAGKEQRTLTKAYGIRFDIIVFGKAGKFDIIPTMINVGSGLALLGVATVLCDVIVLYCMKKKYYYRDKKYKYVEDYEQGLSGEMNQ
The test is described as follows: Antagonist activity against recombinant rat P2X purinoceptor 4 (P2X4) at 3 uM, expressed in Xenopus oocytes. The format is functional, cell-based, Oocyte.

For test [3], the target named is T3, P2X purinoceptor 1 (Rattus norvegicus, UniProt P47824).
T3 sequence (P47824 whole entry): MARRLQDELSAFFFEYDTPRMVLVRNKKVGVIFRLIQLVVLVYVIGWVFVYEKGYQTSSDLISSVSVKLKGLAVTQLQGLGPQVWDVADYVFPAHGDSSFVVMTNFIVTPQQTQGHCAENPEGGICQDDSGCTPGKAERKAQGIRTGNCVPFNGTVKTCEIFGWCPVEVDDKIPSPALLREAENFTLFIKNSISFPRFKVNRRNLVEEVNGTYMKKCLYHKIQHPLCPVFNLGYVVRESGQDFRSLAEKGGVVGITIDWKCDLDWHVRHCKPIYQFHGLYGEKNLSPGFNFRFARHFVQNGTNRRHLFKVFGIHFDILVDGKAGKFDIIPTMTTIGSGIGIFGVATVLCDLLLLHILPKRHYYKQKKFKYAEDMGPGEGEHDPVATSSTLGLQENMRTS
In words: The compound was evaluated for antagonist activity against recombinant rat P2X purinoceptor 1 (P2X1) at 1 uM, expressed in Xenopus oocytes. The format is functional, cell-based, Oocyte.

In test [4] the target is T4, P2X purinoceptor 4 (Homo sapiens, UniProt Q99571).
T4 sequence (Q99571 whole entry): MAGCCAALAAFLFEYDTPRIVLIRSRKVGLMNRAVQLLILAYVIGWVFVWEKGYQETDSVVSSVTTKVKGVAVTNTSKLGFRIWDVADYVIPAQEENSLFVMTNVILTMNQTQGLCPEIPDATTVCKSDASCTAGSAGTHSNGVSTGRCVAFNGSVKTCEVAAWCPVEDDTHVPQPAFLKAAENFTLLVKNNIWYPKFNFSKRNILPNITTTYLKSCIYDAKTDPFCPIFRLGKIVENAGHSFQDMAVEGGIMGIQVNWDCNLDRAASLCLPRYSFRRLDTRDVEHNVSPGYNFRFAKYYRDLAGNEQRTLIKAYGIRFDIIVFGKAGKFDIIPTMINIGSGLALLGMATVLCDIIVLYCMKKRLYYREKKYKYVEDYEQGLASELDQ
The test is described as follows: Antagonist activity against recombinant human P2X purinoceptor 4 (P2X4). The format is functional.

Test [5] has as its target T2, P2X purinoceptor 4. In words: Antagonist activity against recombinant rat P2X purinoceptor 4 (P2X4) at 30 uM, expressed in Xenopus oocytes. The format is functional, cell-based, Oocyte.
A further test concerns the target T5, P2X purinoceptor 5 (Rattus norvegicus, UniProt P51578).
T5 sequence (P51578 whole entry): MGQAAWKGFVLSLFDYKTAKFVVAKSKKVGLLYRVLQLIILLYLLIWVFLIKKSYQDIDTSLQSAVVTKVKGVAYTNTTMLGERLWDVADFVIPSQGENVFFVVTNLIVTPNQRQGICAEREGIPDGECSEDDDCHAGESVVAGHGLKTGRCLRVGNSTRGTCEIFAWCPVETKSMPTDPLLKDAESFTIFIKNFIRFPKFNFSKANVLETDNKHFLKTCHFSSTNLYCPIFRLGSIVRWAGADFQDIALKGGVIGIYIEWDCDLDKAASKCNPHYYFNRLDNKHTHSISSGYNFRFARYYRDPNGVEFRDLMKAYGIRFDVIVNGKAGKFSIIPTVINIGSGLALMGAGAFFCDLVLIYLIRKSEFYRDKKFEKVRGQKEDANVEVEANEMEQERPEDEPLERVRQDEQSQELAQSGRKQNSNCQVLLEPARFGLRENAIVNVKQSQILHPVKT
In words: Antagonist activity against recombinant rat P2X purinoceptor 5 (P2X5). The test is classed as functional.

For another test, the target named is P2X purinoceptor 6 (Rattus norvegicus, UniProt P51579). The test is described as follows: Antagonist activity against recombinant rat P2X purinoceptor 6 (P2X6 ). The test is classed as functional.
A further test addresses T6, P2X purinoceptor 2 (Rattus norvegicus, UniProt P49653).
T6 sequence (P49653 whole entry): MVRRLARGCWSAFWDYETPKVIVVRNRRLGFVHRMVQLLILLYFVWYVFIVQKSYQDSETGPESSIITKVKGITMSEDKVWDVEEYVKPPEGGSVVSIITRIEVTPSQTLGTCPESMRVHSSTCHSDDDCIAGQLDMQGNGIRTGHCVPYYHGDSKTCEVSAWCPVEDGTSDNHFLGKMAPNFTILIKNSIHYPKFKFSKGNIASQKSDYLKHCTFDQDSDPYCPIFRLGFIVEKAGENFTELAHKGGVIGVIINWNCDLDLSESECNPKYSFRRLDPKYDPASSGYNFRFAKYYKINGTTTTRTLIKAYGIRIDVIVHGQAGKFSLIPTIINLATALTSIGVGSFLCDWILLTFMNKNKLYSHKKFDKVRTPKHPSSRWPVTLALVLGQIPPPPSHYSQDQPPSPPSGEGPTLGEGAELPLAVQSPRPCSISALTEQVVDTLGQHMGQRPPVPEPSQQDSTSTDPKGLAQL
In words: Antagonist activity against recombinant rat receptor P2X purinoceptor 2 (P2X2) at 10 uM, expressed in Xenopus oocytes. The test is classed as functional, cell-based, Oocyte.

A further test deals with T7, P2X purinoceptor 3 (Homo sapiens, UniProt P56373).
T7 sequence (P56373 whole entry): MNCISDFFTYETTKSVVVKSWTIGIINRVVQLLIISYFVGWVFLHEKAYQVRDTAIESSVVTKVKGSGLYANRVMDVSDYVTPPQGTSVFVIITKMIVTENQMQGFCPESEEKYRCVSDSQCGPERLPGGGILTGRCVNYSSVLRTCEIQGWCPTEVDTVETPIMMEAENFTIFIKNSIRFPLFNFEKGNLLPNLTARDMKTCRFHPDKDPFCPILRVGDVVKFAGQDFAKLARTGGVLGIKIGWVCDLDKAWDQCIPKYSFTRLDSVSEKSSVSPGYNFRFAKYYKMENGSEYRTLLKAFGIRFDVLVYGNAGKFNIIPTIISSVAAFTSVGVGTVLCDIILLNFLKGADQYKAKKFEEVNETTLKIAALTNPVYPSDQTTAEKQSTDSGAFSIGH
In words: Antagonist activity against recombinant human P2X purinoceptor 3 (P2X3 ). The format is functional.

A further test deals with T8, P2Y purinoceptor 11 (Homo sapiens, UniProt Q96G91).
T8 sequence (Q96G91 whole entry): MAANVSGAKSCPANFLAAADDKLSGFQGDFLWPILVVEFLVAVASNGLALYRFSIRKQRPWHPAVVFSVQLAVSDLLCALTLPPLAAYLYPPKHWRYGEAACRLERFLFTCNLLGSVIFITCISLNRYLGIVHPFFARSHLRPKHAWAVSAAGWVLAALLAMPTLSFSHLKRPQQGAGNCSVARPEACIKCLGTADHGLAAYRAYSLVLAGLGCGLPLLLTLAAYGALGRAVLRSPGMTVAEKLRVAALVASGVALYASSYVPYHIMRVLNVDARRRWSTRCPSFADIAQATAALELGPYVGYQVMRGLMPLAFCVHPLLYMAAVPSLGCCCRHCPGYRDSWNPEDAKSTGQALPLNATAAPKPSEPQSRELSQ
The test is described as follows: Agonist activity against phospholipase C coupled human P2Y purinoceptor 11 (P2Y11). The test is classed as functional.

In a further test the target is P2Y purinoceptor 6 (Homo sapiens, UniProt Q15077). In words: The compound was evaluated for agonist activity against phospholipase C coupled recombinant human P2Y purinoceptor 6 (P2Y6). The format is functional.
The target of test [6] is T3, P2X purinoceptor 1. In words: The compound was evaluated for antagonist activity against recombinant rat P2X purinoceptor 1 (P2X1). The format is functional.
Another test concerns the target P2Y purinoceptor 2 (Homo sapiens, UniProt P41231). In words: Evaluated for agonist activity against phospholipase C coupled recombinant human P2Y purinoceptor 2 (P2Y2). The test is classed as functional.
Another test addresses P2Y purinoceptor 4 (Homo sapiens, UniProt P51582). The test is described as follows: The compound was evaluated for antagonist activity against phospholipase C coupled recombinant human P2Y purinoceptor 4 (P2Y4). The format is functional.

Chain of P2Y purinoceptor 1 (P49652 whole entry): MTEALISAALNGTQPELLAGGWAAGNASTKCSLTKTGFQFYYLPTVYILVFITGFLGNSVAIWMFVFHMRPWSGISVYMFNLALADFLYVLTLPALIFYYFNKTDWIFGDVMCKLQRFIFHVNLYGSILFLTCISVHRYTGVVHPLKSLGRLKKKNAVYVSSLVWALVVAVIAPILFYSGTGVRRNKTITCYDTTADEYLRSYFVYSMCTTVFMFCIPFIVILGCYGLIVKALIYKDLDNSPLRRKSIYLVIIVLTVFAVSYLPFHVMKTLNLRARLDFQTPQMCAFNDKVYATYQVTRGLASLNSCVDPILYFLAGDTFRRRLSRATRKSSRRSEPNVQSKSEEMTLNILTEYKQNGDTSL
Chain of P2Y purinoceptor 12 (Q9EPX4 whole entry): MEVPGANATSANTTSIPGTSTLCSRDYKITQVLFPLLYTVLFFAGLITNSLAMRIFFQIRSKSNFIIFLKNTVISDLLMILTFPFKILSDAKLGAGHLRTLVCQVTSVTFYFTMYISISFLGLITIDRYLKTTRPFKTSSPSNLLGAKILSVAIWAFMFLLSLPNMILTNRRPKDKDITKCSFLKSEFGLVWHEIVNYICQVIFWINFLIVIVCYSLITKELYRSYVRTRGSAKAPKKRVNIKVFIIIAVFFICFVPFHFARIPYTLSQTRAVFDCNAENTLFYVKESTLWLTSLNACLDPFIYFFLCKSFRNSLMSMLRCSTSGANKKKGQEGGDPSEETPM
Chain of P2Y purinoceptor 6 (Q15077 whole entry): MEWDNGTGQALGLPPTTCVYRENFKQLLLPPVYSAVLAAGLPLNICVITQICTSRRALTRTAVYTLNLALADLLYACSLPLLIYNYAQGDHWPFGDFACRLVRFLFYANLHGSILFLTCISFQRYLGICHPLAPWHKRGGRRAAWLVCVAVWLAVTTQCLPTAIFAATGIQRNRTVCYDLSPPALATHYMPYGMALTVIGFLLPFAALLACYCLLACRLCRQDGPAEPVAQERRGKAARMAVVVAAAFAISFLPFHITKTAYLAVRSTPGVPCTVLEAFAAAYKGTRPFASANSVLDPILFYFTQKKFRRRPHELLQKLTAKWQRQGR
Chain of P2X purinoceptor 6 (P51579 whole entry): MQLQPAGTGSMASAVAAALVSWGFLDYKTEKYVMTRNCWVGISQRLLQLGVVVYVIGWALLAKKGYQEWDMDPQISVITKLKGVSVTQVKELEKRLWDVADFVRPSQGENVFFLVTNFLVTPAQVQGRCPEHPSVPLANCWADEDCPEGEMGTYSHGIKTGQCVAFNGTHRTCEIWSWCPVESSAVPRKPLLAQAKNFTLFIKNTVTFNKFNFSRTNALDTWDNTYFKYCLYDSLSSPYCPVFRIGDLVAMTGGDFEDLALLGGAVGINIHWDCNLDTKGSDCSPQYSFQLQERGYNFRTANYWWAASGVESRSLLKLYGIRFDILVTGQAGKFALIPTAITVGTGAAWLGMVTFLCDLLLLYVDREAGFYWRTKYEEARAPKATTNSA
Chain of P2Y purinoceptor 2 (P41231 whole entry): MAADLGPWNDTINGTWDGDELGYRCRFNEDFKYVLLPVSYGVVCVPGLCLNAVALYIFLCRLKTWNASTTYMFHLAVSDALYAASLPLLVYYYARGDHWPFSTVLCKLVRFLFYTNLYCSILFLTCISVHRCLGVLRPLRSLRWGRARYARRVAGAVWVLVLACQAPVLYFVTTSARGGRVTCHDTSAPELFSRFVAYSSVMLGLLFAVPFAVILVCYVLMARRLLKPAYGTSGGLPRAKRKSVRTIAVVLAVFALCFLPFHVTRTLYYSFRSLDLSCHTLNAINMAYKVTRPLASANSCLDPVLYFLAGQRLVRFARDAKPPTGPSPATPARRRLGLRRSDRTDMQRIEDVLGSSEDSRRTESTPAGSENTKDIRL
Chain of P2Y purinoceptor 4 (P51582 whole entry): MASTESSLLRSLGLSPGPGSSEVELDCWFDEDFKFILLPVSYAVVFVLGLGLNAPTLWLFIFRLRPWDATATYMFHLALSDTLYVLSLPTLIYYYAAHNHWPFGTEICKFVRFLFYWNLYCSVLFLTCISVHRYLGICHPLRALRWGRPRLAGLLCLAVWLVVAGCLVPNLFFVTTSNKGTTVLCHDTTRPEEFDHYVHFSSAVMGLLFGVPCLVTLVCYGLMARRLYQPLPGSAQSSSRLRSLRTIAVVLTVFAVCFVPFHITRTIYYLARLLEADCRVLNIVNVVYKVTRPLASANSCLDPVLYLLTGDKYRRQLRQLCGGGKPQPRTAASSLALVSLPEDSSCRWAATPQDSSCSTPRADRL

`Nc1ncnc2c1ncn2[C@@H]1O[C@H](COP(=O)(O)OP(=O)(O)CP(=O)(O)O)[C@@H](O)[C@H]1O` [PHOSPHOMETHYLPHOSPHONIC ACID ADENYLATE ESTER]: the half-maximal effective concentration (EC50) (commonly the concentration giving half of the maximal effect) is greater than 100000 nM on P2Y purinoceptor 12, greater than 100000 nM at P2Y purinoceptor 1 and 2000 nM on P2X purinoceptor 1 [1].
Take `Nc1ccc(CCSc2nc(N)c3ncn([C@@H]4O[C@H](COP(=O)(O)OP(=O)(O)OP(=O)(O)O)[C@@H](O)[C@H]4O)c3n2)cc1`: the EC50 is 15000 nM on P2X purinoceptor 4 [2], 1.5 nM at P2Y purinoceptor 1 and 98 nM at P2X purinoceptor 1 [3].
Turning to `CSc1nc(N)c2ncn([C@@H]3O[C@H](COP(=O)(O)OP(=O)(O)OP(=O)(O)O)[C@@H](O)[C@H]3O)c2n1`, the EC50 stood at 1000 nM on P2X purinoceptor 4 [4]; 7400 nM on P2X purinoceptor 4 [5]; 1000 nM on P2X purinoceptor 5; 600 nM on P2X purinoceptor 6; 1500 nM at P2X purinoceptor 2; 350 nM at P2X purinoceptor 3. Further, the EC50 at P2Y purinoceptor 11 stood at 50000 nM; at P2Y purinoceptor 12 it was 1.1 nM; at P2Y purinoceptor 6, 100000 nM; on P2X purinoceptor 1 [1] it was 54 nM.
Consider `CCCCCCSc1nc(N)c2ncn([C@@H]3O[C@H](COP(=O)(O)O)[C@@H](O)[C@H]3O)c2n1`, for which the values for the EC50 at P2X purinoceptor 4 [2], at P2Y purinoceptor 1 and on P2X purinoceptor 1 [3] were 20000 nM, 4.8 nM and 840 nM, respectively.
Turning to `Cc1nc(/N=N/c2cc(S(=O)(=O)O)c3cc([N+](=O)[O-])cc(S(=O)(=O)O)c3c2)c(COP(=O)(O)O)c(C=O)c1O`, the EC50 at P2X purinoceptor 1 [6] came to 14 nM.
On to `Nc1ncnc2c1ncn2[C@H]1C[C@H](O)[C@@H](COP(=O)(O)OP(=O)(O)OP(=O)(O)O)O1`, for which a half-maximal response at P2Y purinoceptor 11 (EC50) required 9000 nM.
As for `O=c1[nH]cnc2c1ncn2[C@@H]1O[C@H](COP(=O)(O)OP(=O)(O)OP(=O)(O)OP(=O)(O)OP(=O)(O)OC[C@H]2O[C@@H](n3cnc4c(=O)[nH]cnc43)[C@H](O)[C@@H]2O)[C@@H](O)[C@H]1O`, the EC50 on P2X purinoceptor 1 [6] stood at 1.5 nM.
For the molecule `CNc1nc(Cl)nc2c1ncn2[C@H]1C[C@@H](OP(=O)(O)O)[C@]2(COP(=O)(O)O)C[C@H]12`, the EC50 on P2Y purinoceptor 2 was greater than 100000 nM; on P2Y purinoceptor 11, greater than 100000 nM; at P2Y purinoceptor 12, greater than 100000 nM; on P2Y purinoceptor 4, greater than 100000 nM; on P2Y purinoceptor 6, greater than 100000 nM; at P2Y purinoceptor 1, 52 nM.
